Numbers after ± are expanded uncertainties.
How the values were obtained:
[1] = 101.33 kPa, Liquid, Vibrating tube method
[2] = xn = mol fraction of the nth substance listed; settings: 100 kPa, Liquid, Vibrating tube method

CCCO [propan-1-ol]
[1]
Settings	mass density [kg/m3]
293.15 K	803.77 ± 4
298.15 K	799.69 ± 4
303.15 K	795.58 ± 4
308.15 K	791.52 ± 4
313.15 K	787.42 ± 4
318.15 K	783.17 ± 4
323.15 K	778.96 ± 4

CCCCO [butan-1-ol]
[1]
Settings	mass density [kg/m3]
293.15 K	809.77 ± 4
298.15 K	805.92 ± 4
303.15 K	802 ± 4
308.15 K	798.14 ± 4
313.15 K	794.24 ± 4
318.15 K	790.2 ± 4
323.15 K	786.21 ± 4

CC(C)O [propan-2-ol]
[1]
Settings	mass density [kg/m3]
293.15 K	785.1 ± 4
298.15 K	780.91 ± 4
303.15 K	776.57 ± 4
308.15 K	772.24 ± 4
313.15 K	767.82 ± 4
318.15 K	763.19 ± 4
323.15 K	758.55 ± 4

CC(C)CO [2-methyl-1-propanol]
[1]
Settings	mass density [kg/m3]
293.15 K	801.85 ± 4
298.15 K	797.99 ± 4
303.15 K	794.03 ± 4
308.15 K	790.09 ± 4
313.15 K	786.12 ± 4
318.15 K	781.97 ± 4
323.15 K	777.86 ± 4

CCO [ethanol]
[1]
Settings	mass density [kg/m3]
293.15 K	789.4 ± 4
298.15 K	785.13 ± 4
303.15 K	780.75 ± 4
308.15 K	776.41 ± 4
313.15 K	772.04 ± 4
318.15 K	767.52 ± 4
323.15 K	763.04 ± 4

NCCO [2-aminoethan-1-ol]
[1]
Settings	mass density [kg/m3]
293.15 K	1016.47 ± 4
298.15 K	1012.53 ± 4
303.15 K	1008.47 ± 4
308.15 K	1004.49 ± 4
313.15 K	1000.5 ± 4
318.15 K	996.39 ± 4
323.15 K	992.41 ± 4

NCCO [2-aminoethan-1-ol] + CCCO
mass density [kg/m3], [2]
Settings	x1 = 0.0986	x1 = 0.1974	x1 = 0.2966	x1 = 0.3961	x1 = 0.496	x1 = 0.5961	x1 = 0.6966	x1 = 0.7974	x1 = 0.8985	x1 = 1
293.15 K	823.05 ± 5.6	842.4 ± 5.6	862.05 ± 5.7	882.56 ± 5.8	903.81 ± 5.8	924.46 ± 5.9	946.99 ± 6	969.87 ± 6.1	992.94 ± 6.1	1016.47 ± 4
298.15 K	818.95 ± 5.6	838.27 ± 5.6	857.94 ± 5.7	878.51 ± 5.8	899.73 ± 5.8	920.46 ± 5.9	942.97 ± 6	965.86 ± 6.1	988.96 ± 6.1	1012.53 ± 4
303.15 K	814.83 ± 5.6	834.12 ± 5.6	853.8 ± 5.7	874.37 ± 5.8	895.6 ± 5.8	916.36 ± 5.9	938.85 ± 6	961.75 ± 6.1	984.88 ± 6.1	1008.47 ± 4
308.15 K	810.75 ± 5.6	830.03 ± 5.6	849.74 ± 5.7	870.31 ± 5.8	891.55 ± 5.8	912.32 ± 5.9	934.79 ± 6	957.71 ± 6.1	980.88 ± 6.1	1004.49 ± 4
313.15 K	806.64 ± 5.6	825.91 ± 5.6	845.63 ± 5.7	866.21 ± 5.8	887.47 ± 5.8	908.27 ± 5.9	930.72 ± 6	953.68 ± 6.1	976.87 ± 6.1	1000.5 ± 4
318.15 K	802.38 ± 5.6	821.65 ± 5.6	841.39 ± 5.7	861.99 ± 5.8	883.26 ± 5.8	904.08 ± 5.9	926.53 ± 6	949.53 ± 6.1	972.75 ± 6.1	996.39 ± 4
323.15 K	798.19 ± 5.6	817.46 ± 5.6	837.23 ± 5.7	857.84 ± 5.8	879.14 ± 5.8	899.9 ± 5.9	922.45 ± 6	945.49 ± 6.1	968.76 ± 6.1	992.41 ± 4

CC(C)O [propan-2-ol] + NCCO
[2], x2 = 0
Settings	mass density [kg/m3]
293.15 K	785.1 ± 4
298.15 K	780.91 ± 4
303.15 K	776.57 ± 4
308.15 K	772.24 ± 4
313.15 K	767.82 ± 4
318.15 K	763.19 ± 4
323.15 K	758.55 ± 4

CCCCO [butan-1-ol] + NCCO
[2], x2 = 0
Settings	mass density [kg/m3]
293.15 K	809.77 ± 4
298.15 K	805.92 ± 4
303.15 K	802 ± 4
308.15 K	798.14 ± 4
313.15 K	794.24 ± 4
318.15 K	790.2 ± 4
323.15 K	786.21 ± 4

CC(C)(C)O [2-methylpropan-2-ol]
[1]
Settings	mass density [kg/m3]
298.15 K	780.61 ± 4
303.15 K	775.42 ± 4
308.15 K	770.21 ± 4
313.15 K	764.92 ± 4
318.15 K	759.42 ± 4
323.15 K	753.95 ± 4

NCCO [2-aminoethan-1-ol] + CCCCO
mass density [kg/m3], [2]
Settings	x1 = 0.1188	x1 = 0.2328	x1 = 0.3421	x1 = 0.4472	x1 = 0.5482	x1 = 0.6454	x1 = 0.739	x1 = 0.8291	x1 = 0.9161	x1 = 1
293.15 K	828.26 ± 5.1	846.15 ± 5.2	864.71 ± 5.4	884.56 ± 5.6	904.81 ± 5.8	925.84 ± 6	947.05 ± 6.2	969.79 ± 6.6	993.15 ± 6.8	1016.47 ± 4
298.15 K	824.33 ± 5.1	842.24 ± 5.2	860.76 ± 5.4	880.66 ± 5.6	900.83 ± 5.8	921.87 ± 6	943.04 ± 6.2	965.8 ± 6.6	989.15 ± 6.8	1012.53 ± 4
303.15 K	820.32 ± 5.1	838.27 ± 5.2	856.75 ± 5.4	876.66 ± 5.6	896.78 ± 5.8	917.83 ± 6	938.98 ± 6.2	961.75 ± 6.6	985.1 ± 6.8	1008.47 ± 4
308.15 K	816.39 ± 5.1	834.35 ± 5.2	852.81 ± 5.4	872.72 ± 5.6	892.82 ± 5.8	913.86 ± 6	935 ± 6.2	957.78 ± 6.6	981.13 ± 6.8	1004.49 ± 4
313.15 K	812.46 ± 5.1	830.41 ± 5.2	848.84 ± 5.4	868.77 ± 5.6	888.83 ± 5.8	909.88 ± 6	931 ± 6.2	953.79 ± 6.6	977.14 ± 6.8	1000.5 ± 4
318.15 K	808.37 ± 5.1	826.33 ± 5.2	844.74 ± 5.4	864.67 ± 5.6	884.72 ± 5.8	905.76 ± 6	926.88 ± 6.2	949.68 ± 6.6	973.04 ± 6.8	996.39 ± 4
323.15 K	804.35 ± 5.1	822.32 ± 5.2	840.73 ± 5.4	860.67 ± 5.6	880.7 ± 5.8	901.75 ± 6	922.86 ± 6.2	945.68 ± 6.6	969.05 ± 6.8	992.41 ± 4

Reference: the NIST ThermoML archive (doi:10.1016/j.jct.2019.01.025)
